Measurements from ChEMBL document CHEMBL1156033, “Discovery of the imidazo[1,5-a][1,2,4]-triazolo[1,5-d][1,4]benzodiazepine scaffold as a novel, potent and selective GABA(A) alpha5 inverse agonist series” (Bioorg Med Chem Lett, 2009).
Converted amounts (≈) assume the structure as drawn. The source made the active and inactive calls. No cut-off for these calls is given here.

Key:
[1] = biological target: T1, GABA-A receptor; alpha-5/beta-3/gamma-2 (Homo sapiens, UniProt P18507+P28472+P31644)
T1 sequence (P18507 whole entry): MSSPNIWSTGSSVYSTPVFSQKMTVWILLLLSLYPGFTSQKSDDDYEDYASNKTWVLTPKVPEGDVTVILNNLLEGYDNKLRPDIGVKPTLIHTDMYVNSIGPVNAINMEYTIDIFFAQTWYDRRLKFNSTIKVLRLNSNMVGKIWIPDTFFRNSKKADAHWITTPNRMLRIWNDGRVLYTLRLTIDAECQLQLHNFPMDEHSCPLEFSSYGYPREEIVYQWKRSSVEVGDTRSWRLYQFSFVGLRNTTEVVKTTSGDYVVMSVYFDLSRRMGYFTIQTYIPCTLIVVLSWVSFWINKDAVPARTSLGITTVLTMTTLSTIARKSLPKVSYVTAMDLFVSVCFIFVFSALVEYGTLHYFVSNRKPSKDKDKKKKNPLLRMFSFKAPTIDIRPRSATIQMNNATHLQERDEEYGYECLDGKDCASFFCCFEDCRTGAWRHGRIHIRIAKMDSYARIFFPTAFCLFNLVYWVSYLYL
T1 sequence (P28472 whole entry): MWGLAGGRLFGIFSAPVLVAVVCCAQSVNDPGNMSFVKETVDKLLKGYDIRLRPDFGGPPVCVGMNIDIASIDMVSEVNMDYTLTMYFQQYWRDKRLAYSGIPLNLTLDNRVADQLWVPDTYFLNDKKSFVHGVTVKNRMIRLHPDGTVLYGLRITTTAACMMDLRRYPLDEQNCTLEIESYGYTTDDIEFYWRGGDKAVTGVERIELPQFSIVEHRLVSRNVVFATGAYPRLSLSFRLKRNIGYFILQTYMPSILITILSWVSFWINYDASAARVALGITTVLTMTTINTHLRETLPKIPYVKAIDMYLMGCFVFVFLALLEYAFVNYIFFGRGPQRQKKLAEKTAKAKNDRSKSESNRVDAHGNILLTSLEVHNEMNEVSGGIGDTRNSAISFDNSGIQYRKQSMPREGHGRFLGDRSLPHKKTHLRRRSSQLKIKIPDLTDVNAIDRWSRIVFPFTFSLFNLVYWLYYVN
T1 sequence (P31644 whole entry): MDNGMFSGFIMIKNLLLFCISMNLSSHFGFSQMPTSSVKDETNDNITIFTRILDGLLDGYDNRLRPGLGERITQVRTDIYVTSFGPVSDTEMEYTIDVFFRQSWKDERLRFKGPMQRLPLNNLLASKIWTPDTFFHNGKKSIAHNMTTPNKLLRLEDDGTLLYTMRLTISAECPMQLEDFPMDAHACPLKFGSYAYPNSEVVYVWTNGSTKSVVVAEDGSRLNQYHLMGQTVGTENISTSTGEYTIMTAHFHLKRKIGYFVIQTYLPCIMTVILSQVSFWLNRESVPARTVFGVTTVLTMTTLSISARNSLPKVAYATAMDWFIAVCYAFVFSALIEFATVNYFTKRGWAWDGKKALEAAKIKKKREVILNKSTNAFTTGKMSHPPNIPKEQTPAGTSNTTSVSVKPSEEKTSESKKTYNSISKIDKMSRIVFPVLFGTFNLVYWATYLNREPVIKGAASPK
Description: Binding affinity to GABAA alpha-5-beta-3-gamma-2 receptor

Liver microsomes [2] = conditions: human
Description: Clearance in human liver microsomes

physchem [3] = experiment: physchem
physchem [4] = conditions: buffer, pH 7.4
Description: Lipophilicity, log Dof the compound at pH 7.4

in vitro = conditions: PAMPA
Description: Membrane permeability by PAMPA

Rattus norvegicus [5] = experiment: Inhibition of scopolamine-induced cognitive deficit in Wistar rat at 3 mg/kg, ip by passive avoidance test; format: functional, organism-based; design: dose 3 mg/kg
Rattus norvegicus [6] = experiment: Inhibition of scopolamine-induced cognitive deficit in Wistar rat at 100 mg/kg, ip by passive avoidance test; format: functional, organism-based; design: dose 100 mg/kg
Liver microsomes [7] = conditions: rat
Description: Clearance in rat liver microsomes

SMILES | Ki [1] | other results
CCOC(=O)c1ncn2c1Cn1c(-c3ccccc3)nnc1-c1cc(OC)ccc1-2 | 53.8 nM | –
CCOc1ncn2c1Cn1nccc1-c1cc(Cl)ccc1-2 | 1.4 nM | –
CCOC(=O)c1ncn2c1Cc1cnc(C3CC3)nc1-c1ccccc1-2 | 7.6 nM | –
CCOC(=O)c1ncn2c1Cc1cnc(C(C)C)nc1-c1ccccc1-2 | 8.9 nM | –
Clc1ncn2c1Cn1nccc1-c1ccccc1-2 | 2 nM | –
CCOC(=O)c1ncn2c1Cn1c(Cc3ccccc3)nnc1-c1cc(Br)ccc1-2 | 19.1 nM | –
C#Cc1ccc2c(c1)-c1nc(C)ncc1Cc1c(C(=O)OCC)ncn1-2 | 8.1 nM | CL (Liver microsomes [2]): 8000 µL/min/mg; solubility (physchem [3]): 10 µg/mL (≈ 29 µM); logD (physchem [4]): 2.68; Papp (in vitro): 2.78 ×10⁻⁶ cm/s
CCOC(=O)c1ncn2c1Cn1ncnc1-c1cc(OC)ccc1-2 | 0.2 nM | –
CCOC(=O)c1ncn2c1Cn1c(Cc3ccccc3)nnc1-c1cc(OC)ccc1-2 | 22.9 nM | –
Clc1ncn2c1Cn1cnnc1-c1cc(Br)ccc1-2 | 27.4 nM | –
CCOC(=O)c1ncn2c1Cc1cnc(C)nc1-c1ccccc1-2 | 3.8 nM | –
CCOC(=O)c1ncn2c1Cn1cnnc1-c1ccccc1-2 | 0.8 nM | –
CCOC(=O)c1ncn2c1Cn1ncnc1-c1cc(Cl)ccc1-2 | 0.2 nM | solubility (physchem [3]): 15 µg/mL (≈ 45.5 µM); logD (physchem [4]): 1.83; Papp (in vitro): 5.59 ×10⁻⁶ cm/s
CCOC(=O)c1ncn2c1Cn1ncnc1-c1cc(OC(F)(F)F)ccc1-2 | 0.8 nM | –
CCOC(=O)c1ncn2c1Cn1cnnc1-c1cc(OC)ccc1-2 | 1.4 nM | inhibition (Rattus norvegicus [5]): Active
CCOC(=O)c1ncn2c1Cn1ncnc1-c1cc(C3CC3)ccc1-2 | 0.6 nM | –
N#Cc1ccc2c(c1)-c1nncn1Cc1c(Cl)ncn1-2 | 25.3 nM | –
CCOC(=O)c1ncn2c1Cc1cnc(-c3ccccc3)nc1-c1ccccc1-2 | 171 nM | –
CCOC(=O)c1ncn2c1Cn1ncnc1-c1cc(Br)ccc1-2 | 0.3 nM | –
C#Cc1ccc2c(c1)-c1nncn1Cc1c(C(=O)OCC)ncn1-2 | 2.3 nM | –
Cc1ncc2c(n1)-c1cc(Br)ccc1-n1cnc(Cl)c1C2 | 61 nM | –

SMILES | Ki [1] | other results
CCOC(=O)c1ncn2c1Cn1cnnc1-c1cc(Br)ccc1-2 | 0.6 nM | –
CCOC(=O)c1ncn2c1Cn1ncnc1-c1ccccc1-2 | 0.2 nM | –
CCOC(=O)c1ncn2c1Cn1ncnc1-c1cc(C)ccc1-2 | 0.5 nM | –
CCOc1ncn2c1Cn1nccc1-c1ccccc1-2 | 0.2 nM | –
C#Cc1ccc2c(c1)-c1ncnn1Cc1c(C(=O)OCC)ncn1-2 | 0.6 nM | –
CCOC(=O)c1ncn2c1Cc1cnc(C3CC3)nc1-c1cc(F)ccc1-2 | 7.8 nM | –
CCOC(=O)c1ncn2c1Cc1cnc(C)nc1-c1cc(Br)ccc1-2 | 12.5 nM | CL (Liver microsomes [2]): 4000 µL/min/mg; inhibition (Rattus norvegicus [6]): Active; solubility (physchem [3]): 20 µg/mL (≈ 50.1 µM); logD (physchem [4]): 2.68; Papp (in vitro): 3.6 ×10⁻⁶ cm/s
CCOC(=O)c1ncn2c1Cn1c(C)nnc1-c1cc(OC)ccc1-2 | 14.5 nM | –
C#Cc1ccc2c(c1)-c1nncn1Cc1c(Cl)ncn1-2 | 33.6 nM | –
CCCc1ncc2c(n1)-c1ccccc1-n1cnc(C(=O)OCC)c1C2 | 5.5 nM | –
c1ccc2c(c1)-c1ncnn1Cc1cncn1-2 | 6.4 nM | CL (Liver microsomes [7]): 4000 µL/min/mg; CL (Liver microsomes [2]): 8000 µL/min/mg; solubility (physchem [3]): 231 µg/mL (≈ 1030 µM); logD (physchem [4]): 0.73; Papp (in vitro): 2.87 ×10⁻⁶ cm/s
CCOC(=O)c1ncn2c1Cn1cnnc1-c1cc(C)ccc1-2 | 2.1 nM | –
CCOC(=O)c1ncn2c1Cc1cnc(Cc3ccc(OC)cc3)nc1-c1ccccc1-2 | 12.5 nM | –
c1ccc2c(c1)-c1ncncc1Cc1cncn1-2 | 410 nM | –
Cc1ncn2c1Cn1cc(CN3CCCC3=O)nc1-c1cc(Br)ccc1-2 | 1.6 nM | –
CCOC(=O)c1cn2c(n1)-c1cc(Br)ccc1-n1cnc(C)c1C2 | 5.4 nM | –
Cc1ncn2c1Cn1cc(CO)nc1-c1cc(Br)ccc1-2 | 8.1 nM | –
CC(C)C(=O)c1ncn2c1Cn1cnnc1-c1cc(Br)ccc1-2 | 55.5 nM | –
CCOC(=O)c1ncn2c1Cn1ncnc1-c1cc(NC(=O)C(C)C)ccc1-2 | 6.4 nM | –
Cc1ncn2c1Cn1nccc1-c1cc(Br)ccc1-2 | 49.1 nM | –
Brc1ccc2c(c1)-c1nncn1Cc1c(I)ncn1-2 | 7.8 nM | –

SMILES | Ki [1] | other results
CCOC(=O)c1ncn2c1Cc1cncnc1-c1cc(Br)ccc1-2 | 20.2 nM | –
CCOC(=O)c1ncn2c1Cn1cnnc1-c1cc(O)ccc1-2 | 0.6 nM | –
Cc1ncn2c1Cn1ccnc1-c1cc(Br)ccc1-2 | 6.6 nM | –
Cc1cn2c(n1)-c1cc(Br)ccc1-n1cnc(C)c1C2 | 119 nM | –
CCOC(=O)c1ncn2c1Cc1cnc(C)nc1-c1cc(F)ccc1-2 | 4.6 nM | –
Cc1ncc2c(n1)-c1ccccc1-n1cnc(Cl)c1C2 | 15.6 nM | –
C#Cc1ccc2c(c1)-c1nc(C)ncc1Cc1c(Cl)ncn1-2 | 133 nM | –
CCOC(=O)c1ncn2c1Cc1cncnc1-c1ccccc1-2 | 3.7 nM | –
Cc1ncn2c1Cn1cnnc1-c1cc(Br)ccc1-2 | 150 nM | –
Clc1ncn2c1Cc1cncnc1-c1ccccc1-2 | 15.6 nM | –
CCOC(=O)c1ncn2c1Cn1cnnc1-c1cc(Cl)ccc1-2 | 1.2 nM | –
Cc1ncn2c1Cn1nccc1-c1ccccc1-2 | 3 nM | –
Cc1ncn2c1Cn1c(C)cnc1-c1cc(Br)ccc1-2 | 11.7 nM | –
C#Cc1ncn2c1Cn1cnnc1-c1cc(Br)ccc1-2 | 7.8 nM | –
CCOC(=O)c1ncn2c1Cc1cnc(C(C)C)nc1-c1cc(F)ccc1-2 | 11.2 nM | –
Clc1ncn2c1Cc1cncnc1-c1cc(Br)ccc1-2 | 136 nM | –
CCOC(=O)c1ncn2c1Cn1cnnc1-c1cc(F)ccc1-2 | 1.7 nM | –
CCCc1ncc2c(n1)-c1cc(F)ccc1-n1cnc(C(=O)OCC)c1C2 | 8 nM | –
O=C(c1ncn2c1Cn1nccc1-c1ccccc1-2)C1CC1 | 1 nM | –
